The subject of one data set is KOPN8 cells. Briefly: alamarBlue cytotoxicity assay, 48h. It counts as cell-based, human. The following applies: RPMI + 10% FBS. Here is the method:
(§1) Following subtraction of background fluorescence from all wells, fluorescence of drug-treated cells was normalized to that of vehicle (<0.5% DMSO)-treated cells to determine the effect of each drug concentration on viability. Each cell line was tested in triplicate and in at least three independent experiments. IC50 (concentration that inhibits cell growth by 50%) values were calculated using CompuSyn software (ComboSyn, Paramus, NJ). […] In addition several cell lines were initially cultured and tested in alternative media (Supplementary Table S2). […] Colony counts were normalized to vehicle-treated controls (100%). Three independent experiments were performed.
(§2) In most experiments, cytotoxicity was assessed using alamarBlue assays (Life Technologies, Grand Island, NY). In experiments using NAC and DFO, which can interfere with alamarBlue assay performance, Trypan Blue dye exclusion was used instead. […]
(§3) experiments performed in triplicate. […] Age refers to age […]
(§4) at the time of leukemia diagnosis of the patient from whom the cell line was derived. (–) Indicates information unavailable.
(§5) *Cell lines with FLT3/ITD mutations.
(§6) *The MV-4–11 cell line was derived from a patient with a biphenotypic B-myelomonocytic leukemia; K562 was derived […]
(§7) 1A. p53 status was obtained from http://cancer.sanger.ac.uk/cell_lines/cbrowse/all and http://p53.free.fr/Database/Cancer_ cell_lines/Leukemia_cancer. html. WT: wild type. Mut: mutant. SM: single mutation. DM: double mutation. MM: multiple mutations. Fs: Frameshift mutation. Null: protein expression undetectable. […]
(§8) measured via alamarBlue assay. […]
A general note: The colour change of resazurin is a common sign of viable cells or microbes.

Data set [1] relates to MOLM14 cells. Description: alamarBlue cytotoxicity assay, 48h. It counts as cell-based, human. The conditions noted are these: MOLM14 (AML), 48h, RPMI + 10% FBS. How it is done:
as §1, §2, §3, §4, §5, §6, §7, §8

For data set [2], the system named is MOLM14 cells. Briefly: viable cell counts via Trypan Blue dye exclusion, 48h. It is filed as cell-based, human. The following applies: read-out: approximate 48h IC50. How it is done:
A. Quantification of the percentage of early apoptotic cells (Annexin-V+/7-AAD-) from three independent experiments in which cells were stained for apoptosis with 7-AAD and Annexin-V then analyzed by flow cytometry. […] C. […] 16h after addition of drugs, cells were washed and analyzed by flow cytometry for CM-H2DCFDA fluorescence (indicating total ROS generation) in the FL1 channel. Mean Fluorescence Intensity (MFI) was normalized to that of vehicle control (0.5% DMSO) with no pretreatment. […] Viable cell counts, obtained via Trypan Blue dye exclusion, were normalized to vehicle (0.02% DMSO)-treated samples +/– pretreatment.
In most experiments, cytotoxicity was assessed using alamarBlue assays (Life Technologies, Grand Island, NY). In experiments using NAC and DFO, which can interfere with alamarBlue assay performance, Trypan Blue dye exclusion was used instead.

Data set [3] in a line: plasma pharmacokinetics after single oral dose. The conditions noted are these: single oral dose AS 200 mg/kg, NSG mice.
Protocol: (§9) Plasma samples were obtained from 3-6 male NSG mice per time point (15min-24h after drug administration). Symbols represent concentrations of compound by LC/MS-MS detection.
(§10) Blood samples were collected via retro-orbital bleeding into EDTA-coated tubes. PK samples were centrifuged to obtain plasma, which was stored frozen (−80°C) until liquid chromatography/triple quadrupole mass spectrometry (LC/MS-MS) analysis.
(§11) were separated using an Agilent Zorbax Eclipse C18 column (2.1 mm x 50 mm, 3.5 μm) using gradient mobile phase
(§12) (acetonitrile and 2 mM ammonium acetate both containing 0.1% formic acid) and a gradient flow rate (0.2 to 0.4 ml/
(§13) min). An AB Sciex 5500 triple quadrupole mass spectrometer was used for detection. The m/z transitions used were
(§14) The calibration range was 5–1,000 ng/mL for all analytes. Mean drug concentrations were calculated at each time point. PK parameters (plasma
(§15) half-life [T1/2]; time to reach Cmax [Tmax]; maximum plasma concentration [Cmax]; area under the plasma concentration-
(§16) time curve [AUC] from time zero to the last measurable concentration [AUClast]; AUC from time zero to infinity [i.e.,
(§17) the AUClast + the extrapolated AUC from AUClast to infinity; AUC0–∞]; apparent volume of distribution [Vz/F]; body
(§18) weight-adjusted apparent clearance [CL/F/kg]) were calculated from mean drug concentration-time data using non-
(§19) the r2 of the elimination rate constant (λ ) was < 0.9, the AUC , CL/F, and T were not reported (NR).
Another data set in a line: in vivo. The conditions noted are these: male, NSG, mouse, plasma, po, 200 mg/kg.
Where [4] appears, read: Homo sapiens, KOPN-8, KOPN8 (B-ALL).

Values joined by “and” are separate entries in the source; they are usually repeats but may differ in a detail not shown here. Equal values may be shown once. Where a name gives a salt, the structure may show the parent alone.

Protocol for in vivo: as §9, §10, §11, §12, §13, §14, §15, §16, §17, §18, §19

For `Nc1ccn([C@@H]2O[C@H](CO)[C@@H](O)[C@@H]2O)c(=O)n1` [ARA, cytosine arabinoside], the 50% inhibitory concentration (IC50) with KOPN8 cells (KOPN8 (B-ALL)) was determined as 73 nM; with MOLM14 cells [1] it was 286 nM.
On to `CC(=O)N(O)CCCCCNC(=O)CCC(=O)N(O)CCCCCNC(=O)CCC(=O)N(O)CCCCCN` [DFO, deferoxamine mesylate], for which the IC50 in the data set with MOLM14 cells [2] (Homo sapiens, MOLM-14, 48 h) was approximately 11000 nM.
Take `C[C@H]1[C@@H](O)O[C@@H]2O[C@@]3(C)CC[C@H]4[C@H](C)CC[C@@H]1[C@@]24OO3` [DHA, dihydroartemisinin]: in the data set on KOPN8 cells (setting [4]), the IC50 came to 351 nM. For the same compound, the IC50 in the data set on MOLM14 cells [1] (Homo sapiens, MOLM-14) turned out to be 1020 nM. Besides, the T1/2 in data set [3] (plasma) is less than 60 min. Also, the “time by which plasma declined to undetectable levels” value in data set [3] was not above 4 h. Further, in the data set “in vivo”, the AUC(0-inf) was determined as 1300 ng·h/mL; the AUC(0-t) came to 1290 ng·h/mL; the CL/F is 2050 mL/min/kg; the Cmax was 1630 ng/mL and 5.74 µM. In “in vivo”, the Tmax worked out at 15 min, the Vd/F was found to be 103 L/kg and the half-life was 34.8 min.
Regarding `COc1cccc2c1C(=O)c1c(O)c3c(c(O)c1C2=O)C[C@@](O)(C(=O)CO)C[C@@H]3O[C@H]1C[C@H](N)[C@H](O)[C@H](C)O1` [DOX, doxorubicin], the IC50 stood at 30 nM with KOPN8 cells (setting [4]) and 79 nM with MOLM14 cells [1] (Homo sapiens, MOLM-14).
For `COc1cc([C@@H]2c3cc4c(cc3[C@@H](O[C@@H]3O[C@@H]5CO[C@@H](C)O[C@H]5[C@H](O)[C@H]3O)[C@H]3COC(=O)[C@H]23)OCO4)cc(OC)c1O` [ETO, etoposide] the same measures were 150 nM and 242 nM.
On to `C[C@]12O[C@H](C[C@]1(O)CO)n1c3ccccc3c3c4c(c5c6ccccc6n2c5c31)CNC4=O` [LES, lestaurtinib], for which the IC50 was 45 nM in the data set with KOPN8 cells (setting [4]) and 3 nM in the data set with MOLM14 cells [1] (Homo sapiens, MOLM-14).
On to `CO[C@@H]1[C@H](N(C)C(=O)c2ccccc2)C[C@H]2O[C@]1(C)n1c3ccccc3c3c4c(c5c6ccccc6n2c5c31)C(=O)NC4` [MID, midostaurin], for which the IC50 with KOPN8 cells (setting [4]) came out at 210 nM.
Take `CC(=O)N[C@@H](CS)C(=O)O` [NAC, N-acetyl cysteine]: in the data set on MOLM14 cells [2] (MOLM14, preliminary experiments), the IC50 is approximately 25000 nM.
Consider `CNC(=O)c1cc(Oc2ccc(NC(=O)Nc3ccc(Cl)c(C(F)(F)F)c3)cc2)ccn1` [SOR, sorafenib], for which the IC50 worked out at 4200 nM in the data set with KOPN8 cells (setting [4]) and 4 nM in the data set on MOLM14 cells [1] (Homo sapiens, MOLM-14).

For orientation: IC50 means the midpoint of a concentration-inhibition curve. The term AUC(0-inf) denotes total exposure, with the tail of the curve extrapolated. One may read the AUC(0-t) as the area under the concentration-time curve up to a stated or last time point. A lower AUC(0-t) goes with less exposure. For orientation: CL/F means the apparent clearance, not corrected for the fraction that reaches the circulation. For orientation: Cmax means the maximum level reached in the sampled fluid or tissue. By Tmax is commonly meant the time at which the peak concentration occurs. A word on the Vd/F: it is the volume of distribution divided by bioavailability. As usually defined, the half-life is the time in which the quantity being followed falls by half. A high value points to slow decline.

These data come from publication PMC4872784 (Oncotarget, 2016).
